As usually defined, the IC50 is the midpoint of a concentration-inhibition curve. Read a high IC50 as a need for much substance.

The target in the first assay is GST tagged IRAK-4 (Homo sapiens (Human), UniProt Q9NWZ3). In words: IRAK-4 Kinase Assay (IMAP fluorescence polarization). The assay is classed as biochemical. The conditions noted are these: 100 μM ATP, 30 minutes at 25° C. A digest of the protocol: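 Activity was read by IMAP fluorescence polarization, where phosphopeptide binding to M(III) nanoparticles raises FP. The 30-minute, 25° C reaction used 100 μM ATP, 100 nM RP7030 substrate and 0.5 nM GST-IRAK-4 in pH 7.2 Tris buffer with MgCl2, DTT and Tween 20.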
Sequence of GST tagged IRAK-4 (Q9NWZ3 whole entry): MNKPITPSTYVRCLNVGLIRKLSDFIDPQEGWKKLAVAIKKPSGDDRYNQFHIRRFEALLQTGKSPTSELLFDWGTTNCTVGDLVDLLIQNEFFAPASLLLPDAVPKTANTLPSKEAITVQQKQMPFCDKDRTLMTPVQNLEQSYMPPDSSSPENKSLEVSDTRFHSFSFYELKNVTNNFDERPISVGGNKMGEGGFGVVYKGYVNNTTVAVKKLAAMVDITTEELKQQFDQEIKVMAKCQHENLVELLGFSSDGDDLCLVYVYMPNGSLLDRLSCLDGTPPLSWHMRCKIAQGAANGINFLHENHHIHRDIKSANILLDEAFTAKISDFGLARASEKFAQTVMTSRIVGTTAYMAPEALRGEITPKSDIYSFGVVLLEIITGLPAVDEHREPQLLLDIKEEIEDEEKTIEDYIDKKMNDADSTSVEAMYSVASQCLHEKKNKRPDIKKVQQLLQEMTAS
Turning to `Cc1ccc(-n2nc(N3CCN(CC(C)C)CC3)cc2NC(=O)c2cnn3cccnc23)nc1` [Example 324, N-{3-[4-(2-methylpropyl)piperazin-1-yl]-1-(5-methylpyridin-2-yl)-1H-pyrazol-5-yl}pyrazolo[1,5-a]pyrimidine-3-carboxamide], the IC50 is < 0.1 µM.
On the same count and under the same terms, the result for `COc1ncccc1CN1CC(c2cc(NC(=O)c3cnn4cccnc34)n(-c3ccc(C)cc3)n2)C1` [Example 313, N-[3-{1-[(2-methoxypyridin-3-yl)methyl]azetidin-3-yl}-1-(4-methylphenyl)-1H-pyrazol-5-yl]pyrazolo[1,5-a]pyrimidine-3-carboxamide] reads < 0.1 µM; that for `Cc1ccc(-n2nc(N3CCN(C4CCCC4)CC3)cc2NC(=O)c2cnn3cccnc23)nc1` [Example 323, N-[3-(4-cyclopentylpiperazin-1-yl)-1-(5-methylpyridin-2-yl)-1H-pyrazol-5-yl]pyrazolo[1,5-a]pyrimidine-3-carboxamide], < 0.1 µM.
On the same count and under the same terms, the result for `Cc1ccc(-n2nc(C3CCN(CC(N)=O)CC3)cc2NC(=O)c2cnn3cc(Br)cnc23)cc1` [Example 115, N-(3-(1-(2-amino-2-oxoethyl)piperidin-4-yl)-1-(p-tolyl)-1H-pyrazol-5-yl)-6-bromopyrazolo[1,5-a]pyrimidine-3-carboxamide] reads < 0.1 µM.
Turning to `Cc1ccc(-n2nc(C3CCN(C(C)C)CC3)cc2NC(=O)c2cnn3cc(Br)cnc23)cc1` [Example 108, 6-bromo-N-(3-(1-isopropylpiperidin-4-yl)-1-(p-tolyl)-1H-pyrazol-5-yl)pyrazolo[1,5-a]pyrimidine-3-carboxamide], the IC50 was < 0.1 µM.
The same measure, in the same setting: the result for `Cc1ccc(-n2nc(-c3ccc(S(=O)(=O)N4CCN(C)CC4)cc3)cc2NC(=O)c2cnn3cccnc23)cc1` [Example 342, N-[1-(4-methylphenyl)-3-{4-[(4-methylpiperazin-1-yl)sulfonyl]phenyl}-1H-pyrazol-5-yl]pyrazolo[1,5-a]pyrimidine-3-carboxamide] reads < 0.1 µM; that for `Cc1ccc(-n2nc(-c3ccc(S(C)(=O)=O)cc3)cc2NC(=O)c2cnn3cccnc23)nc1` [Example 179, N-(1-(5-methylpyridin-2-yl)-3-(4-(methylsulfonyl)phenyl)-1H-pyrazol-5-yl)pyrazolo[1,5-a]pyrimidine-3-carboxamide], < 0.1 µM; that for `Cc1ccc(-n2nc(-c3ccc(S(=O)(=O)N(C)C)cc3C)cc2NC(=O)c2cnn3cccnc23)cc1` [Example 345, N-{3-[4-(dimethylsulfamoyl)-2-methylphenyl]-1-(4-methylphenyl)-1H-pyrazol-5-yl}pyrazolo[1,5-a]pyrimidine-3-carboxamide], < 0.1 µM.
The same measure, in the same setting: as for `COc1cccc(CN2CC(c3cc(NC(=O)c4cnn5cccnc45)n(-c4ccc(C)cc4)n3)C2)n1` [Example 315, N-[3-{1-[(6-methoxypyridin-2-yl)methyl]azetidin-3-yl}-1-(4-methylphenyl)-1H-pyrazol-5-yl]pyrazolo pyrimidine-3-carboxamide], the figure is < 0.1 µM; as for `O=C(Nc1cc(C2CN(C3CCC3)C2)nn1-c1ccc(C2CC2)cc1F)c1cnn2cccnc12` [Example 89, N-(3-(1-cyclobutylazetidin-3-yl)-1-(4-cyclopropyl-2-fluorophenyl)-1H-pyrazol-5-yl)pyrazolo[1,5-a]pyrimidine-3-carboxamide], < 0.1 µM.
The same measure, in the same setting: as for `Cc1ccc(-n2nc(C3CCN(C4Cc5ccccc5C4)CC3)cc2NC(=O)c2cnn3cccnc23)nc1` [Example 282, N-{3-[1-(2,3-dihydro-1H-inden-2-yl)piperidin-4-yl]-1-(5-methylpyridin-2-yl)-1H-pyrazol-5-yl}pyrazolo[1,5-a]pyrimidine-3-carboxamide], the figure is < 0.1 µM; as for `COc1ccc(-n2nc(C3CCN(C(C)C)CC3)cc2NC(=O)c2cnn3cccnc23)c(F)c1` [Example 62, N-(1-(2-fluoro-4-methoxyphenyl)-3-(1-isopropylpiperidin-4-yl)-1H-pyrazol-5-yl)pyrazolo[1,5-a]pyrimidine-3-carboxamide], < 0.1 µM.

The same assay, now with this note: 100 μM ATP, 30 minutes at 25° C.; μM.
For `Cc1ccc(-n2nc(C3CCNC3)cc2NC(=O)c2cnn3cccnc23)cc1` (stereo not drawn) [Example 80, N-(3-(pyrrolidin-3-yl)-1-(p-tolyl)-1H-pyrazol-5-yl)pyrazolo[1,5-a]pyrimidine-3-carboxamide], the IC50 is < 1 µM.
On the same count and under the same terms, as for `CCS(=O)(=O)N1CC(N2CCC(c3cc(NC(=O)c4cnn5cccnc45)n(-c4ccc(C)cc4)n3)CC2)C1` [Example 243, N-[3-{1-[1-(ethylsulfonyl)azetidin-3-yl]piperidin-4-yl}-1-(4-methylphenyl)-1H-pyrazol-5-yl]pyrazolo[1,5-a]pyrimidine-3-carboxamide], the figure is < 1 µM; as for `Cc1ccc(-n2nc(C3CCN(C(N)=O)CC3)cc2NC(=O)c2cnn3cccnc23)cc1` [Example 35, N-(3-(1-carbamoylpiperidin-4-yl)-1-(p-tolyl)-1H-pyrazol-5-yl)pyrazolo[1,5-a]pyrimidine-3-carboxamide], < 1 µM.
As for `Cc1ccc(-n2nc(C3CN(Cc4nccs4)C3)cc2NC(=O)c2cnn3cccnc23)cc1` [Example 307, N-{1-(4-methylphenyl)-3-[1-(1,3-thiazol-2-ylmethyl)azetidin-3-yl]-1H-pyrazol-5-yl}pyrazolo[1,5-a]pyrimidine-3-carboxamide], the IC50 was < 1 µM.
With `Cc1ccc(-n2nc(C3CCN(S(=O)(=O)c4cccc5ccccc45)CC3)cc2NC(=O)c2cnn3cccnc23)cc1` [Example 357, N-{1-(4-methylphenyl)-3-[1-(naphthalen-1-ylsulfonyl)piperidin-4-yl]-1H-pyrazol-5-yl}pyrazolo[1,5-a]pyrimidine-3-carboxamide], the IC50 was < 1 µM.
Still for that read-out and setting: the result for `COc1ccc(S(=O)(=O)N2CCC(c3cc(NC(=O)c4cnn5cccnc45)n(-c4ccc(C)cc4)n3)CC2)cc1OC` [Example 359, N-[3-{1-[(3,4-dimethoxyphenyl)sulfonyl]piperidin-4-yl}-1-(4-methylphenyl)-1H-pyrazol-5-yl]pyrazolo[1,5-a]pyrimidine-3-carboxamide] reads < 1 µM; that for `Cc1ccc(-n2nc(C3CCN(S(=O)(=O)Cc4noc5ccccc45)CC3)cc2NC(=O)c2cnn3cccnc23)cc1` [Example 356, N-[3-{1-[(1,2-benzisoxazol-3-ylmethyl)sulfonyl]piperidin-4-yl}-1-(4-methylphenyl)-1H-pyrazol-5-yl]pyrazolo[1,5-a]pyrimidine-3-carboxamide], < 1 µM.
`Cc1ccc(-n2nc(-c3cncnc3)cc2NC(=O)c2cnn3cccnc23)cc1` [Example 137, N-(3-(pyrimidin-5-yl)-1-(p-tolyl)-1H-pyrazol-5-yl)pyrazolo[1,5-a]pyrimidine-3-carboxamide]: the IC50 was > 1 µM.
As for `Cc1ccc(-n2nc(C3CCNCC3)cc2NC(=O)c2cnn3cc(Br)cnc23)cc1` [Example 107, 6-bromo-N-(3-(piperidin-4-yl)-1-(p-tolyl)-1H-pyrazol-5-yl)pyrazolo[1,5-a]pyrimidine-3-carboxamide], the IC50 was < 1 µM.
Same read-out and setting: the result for `Cc1ccc(-n2nc(C3(C)CCNCC3)cc2NC(=O)c2cnn3cccnc23)cc1` [Example 91, N-(3-(4-methylpiperidin-4-yl)-1-(p-tolyl)-1H-pyrazol-5-yl)pyrazolo[1,5-a]pyrimidine-3-carboxamide] reads < 1 µM; that for `Cc1ccc(-n2nc(C3CCS(=O)(=O)CC3)cc2NC(=O)c2cnn3cccnc23)cc1` [Example 98, N-(3-(1,1-dioxidotetrahydro-2H-thiopyran-4-yl)-1-(p-tolyl)-1H-pyrazol-5-yl)pyrazolo[1,5-a]pyrimidine-3-carboxamide], < 1 µM; that for `CNS(=O)(=O)c1ccc(-c2cc(NC(=O)c3cnn4cc(C5CC5)cnc34)n(-c3ccc(C)cn3)n2)cc1` [Example 195, 6-cyclopropyl-N-(1-(5-methylpyridin-2-yl)-3-(4-(N-methylsulfamoyl)phenyl)-1H-pyrazol-5-yl)pyrazolo[1,5-a]pyrimidine-3-carboxamide], < 1 µM.
Same read-out and setting: the result for `Cc1ccc(-n2nc(C3CCN(S(=O)(=O)c4cn(C)cn4)CC3)cc2NC(=O)c2cnn3cccnc23)cc1` [Example 376, N-[3-{1-[(1-methyl-1H-imidazol-4-yl)sulfonyl]piperidin-4-yl}-1-(4-methylphenyl)-1H-pyrazol-5-yl]pyrazolo[1,5-a]pyrimidine-3-carboxamide] reads < 1 µM; that for `COc1ccc(-n2nc(C3CCN(C(=O)C4CC4)CC3)cc2NC(=O)c2cnn3cccnc23)cc1` [Example 33, N-(3-(1-(cyclopropanecarbonyl)piperidin-4-yl)-1-(4-methoxyphenyl)-1H-pyrazol-5-yl)pyrazolo[1,5-a]pyrimidine-3-carboxamide], < 1 µM.
Regarding `Cc1ccc(-n2nc(C3CCC(C(F)(F)F)CC3)cc2NC(=O)c2cnn3cccnc23)cc1` (stereo not drawn) [Example 97, N-(1-(p-tolyl)-3-(4-(trifluoromethyl)cyclohexyl)-1H-pyrazol-5-yl)pyrazolo[1,5-a]pyrimidine-3-carboxamide], the IC50 was > 1 µM.
Same read-out and setting: the result for `Cc1ccc(-n2nc(C3CCN(S(=O)(=O)c4cnn(C)c4)CC3)cc2NC(=O)c2cnn3cccnc23)cc1` [Example 375, N-[1-(4-methylphenyl)-3-{1-[(1-methyl-1H-pyrazol-4-yl)sulfonyl]piperidin-4-yl}-1H-pyrazol-5-yl]pyrazolo[1,5-a]pyrimidine-3-carboxamide] reads < 1 µM; that for `Cc1ccc(-n2nc(C3CCN(S(=O)(=O)c4ccc(C#N)cc4)CC3)cc2NC(=O)c2cnn3cccnc23)cc1` [Example 380, N-[3-{1-[(4-cyanophenyl)sulfonyl]piperidin-4-yl}-1-(4-methylphenyl)-1H-pyrazol-5-yl]pyrazolo[1,5-a]pyrimidine-3-carboxamide], < 1 µM; that for `Cc1ccc(-n2nc(C3CCCN(S(C)(=O)=O)C3)cc2NC(=O)c2cnn3cccnc23)cc1` (stereo not drawn) [Example 43, N-(3-(1-(methylsulfonyl)piperidin-3-yl)-1-(p-tolyl)-1H-pyrazol-5-yl)pyrazolo[1,5-a]pyrimidine-3-carboxamide], < 1 µM.

These data come from US9169260B2 (MERCK SHARP & DOHME CORP., priority 2011, dated 2015).
